Reference: patent US9980972B2, “Rho kinase inhibitors for use in treating familial amyotrophic lateral sclerosis” (GEORG-AUGUST-UNIVERSITÄT GÖTTINGEN STIFTUNG ÖFFENTLICHEN …, priority 2012, dated 2018)

Tests used:
[1] = tested on: SOD1 G93A mouse model of ALS; test: Survival (age at death) in SOD1 G93A mouse model of ALS; format: in vivo; conditions: presymptomatic from d50, 10 mg/kg body weight, male and female
Source text: High-copy B6SJL-Tg(SOD1*G93A)1Gur/J were obtained from Jackson Labs (Stock Number 002726; Bar Harbor, USA) that had originally been produced by Gurney et al. (Gurney, Pu et al. 1994). The colony was maintained by crossing C57BL/6 males harboring the transgene with wild-type SJL females. To verify presence of the transgene in the F1 progeny, tail biopsies were collected from 14-day-old pups and genotyped using PCR. At the age of 35-45 days mice were moved to the testing facility to acclimate to the new environment with a 12-h light/dark cycle before being assigned to a study.
At 50 days (presymptomatic, d50) or 80 days of age (symptomatic, d80) mice were separated into Fasudil-30 (Fas30)- and Fasudil-100 (Fas100)-Treatment or Vehicle Control (Veh) groups. Prior to any treatment, groups were constituted so as to minimize between-group variability by using the following criteria. Groups were balanced with respect to gender and body weight within gender. In addition, groups were age-matched and littermate-matched. […] The study was observer-blinded.
To reach sufficient CSF levels of Fasudil the inventors administered Fasudil (LC Labs, Woburn, USA; product number F-4660) at a low concentration of […] (Fas30) or at a high concentration of 50 mg (Fas100) in 100 ml drinking water. Control groups received the respective amount of isotonic drinking water termed as vehicle (Veh).
Chronic oral treatment with a low dose of Fasudil (F30) or a high dose of Fasudil (F100) was started either presymptomatically at day 50 or symptomatically at day 80 and continued until death.
Survival. Date and cause of death were recorded for each mouse. For humane reasons, animals are closely monitored and sacrificed as moribund prior to actual death using criteria for severe moribundity. To determine duration of survival reliably and humanely, the moribund state, defined as the inability of mice to right themselves 30 seconds after being placed on a side (a neurological score of 4) was used. The moribund mice were scored as “dead”, and were euthanized using carbon dioxide.
The data were then analyzed using Kaplan-Meier survival fit analysis with the Log-Rank and Wilcoxon tests for statistical significance. Cox proportional hazards analysis was also performed to determine hazard ratios and test for statistical significance of their differences using the Effect Likelihood Chi Square test. Statistical analyses were performed using Statistica 9.1 (StatSoft, Hamburg, Germany). P-values less than 0.05 were taken to be statistically significant.
The criteria to terminate the therapy study (later referred to as time of death) were fulfilled if the animals had reached the terminal neurological scoring or had lost a defined percentage of the maximal body weight. This time point then reflects the survival time of the animals whereas disease duration was measured from onset of disease until time of death.

[2] = tested on: regenerating axons after optic nerve crush lesion; conditions: high intravitreal dose 40 μmol/l in comparison to medium dose 400 nmol/l; cited from earlier work

Compound	survival [1]	number of regenerating axons after optic nerve crush lesion [2]
C[C@@H](N)[C@H]1CC[C@H](C(=O)Nc2ccncc2)CC1 [Y-27632]	no significant effects	
Cc1cncc2cccc(S(=O)(=O)N3CCCNC[C@@H]3C)c12 [dimethyl-fasudil, (S)-(+)-2-Methyl-1-[(4-methyl-5-isoquinolinyl)sulfonyl]-hexahydro-1H-1,4-diazepine]		significantly reduced
